Reference: patent publication US8563730B2, “Pyrazole and fused pyrazole glucokinase activators” (Takeda San Diego, Inc., priority 2008, dated 2013)

Molecular target: T1, GK (glucokinase, residues 12-465) (Homo sapiens, UniProt P35557)
T1 construct: I.D. No. 1 corresponds to residues 12-465 of glucokinase; made in house; host or cells: DH10b-T1r E. coli
T1 sequence (P35557 with tags, fused parts or gaps isoform P35557-2): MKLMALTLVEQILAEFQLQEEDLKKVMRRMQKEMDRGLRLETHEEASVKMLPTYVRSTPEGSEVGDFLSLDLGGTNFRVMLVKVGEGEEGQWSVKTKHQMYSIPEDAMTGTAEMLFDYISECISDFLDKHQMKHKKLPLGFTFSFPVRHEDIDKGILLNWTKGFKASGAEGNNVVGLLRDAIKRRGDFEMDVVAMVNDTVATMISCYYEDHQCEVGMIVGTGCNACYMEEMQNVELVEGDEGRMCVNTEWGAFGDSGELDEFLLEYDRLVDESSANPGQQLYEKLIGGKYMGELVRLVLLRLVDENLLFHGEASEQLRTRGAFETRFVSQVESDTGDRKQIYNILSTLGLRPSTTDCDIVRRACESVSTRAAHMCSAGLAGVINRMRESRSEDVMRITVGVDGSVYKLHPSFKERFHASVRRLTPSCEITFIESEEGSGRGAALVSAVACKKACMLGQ
Assay: enzymatic glucokinase activity assay (ATP consumption, KinaseGlo luminescence)
Assay type: biochemical
Settings: 5 μM ATP, 5 mM Glucose, reported as bins; for EC50: Kact = concentration that displays 50% of the maximal increase in GK activity, 60 min, room temperature, read-out: pKact; for Emax: calculated maximal gain in GK enzyme activity at a saturating concentration of the compound, read-out: % ACTmax
How it was run: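 E. coli-expressed recombinant GK purified by two anion-exchange steps. Reaction in 25 mM Hepes pH 7.2, 10 mM MgCl2, 1 mM DTT, 5 μM ATP, 5 mM glucose, 2% DMSO, 60 min at room temperature. ATP consumption quantified by KinaseGlo luminescence; pKact and % ACTmax derived by non-linear curve fitting.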

Compound | EC50 [nM] | Emax [%]
O=C(Nc1ncc(F)s1)[C@@H](CC1CCOCC1)n1ncc2c(S(=O)(=O)C3CC3)ccnc21 [Compound 139, (R)-2-(4-(cyclopropylsulfonyl)-1H-pyrazol[3,4-b]pyridin-1-yl)-N-(5-fluorothiazol-2-yl)-3-(tetrahydro-2H-pyran-4-yl)propanamide] | ≥ 15800 | 106 to 110
O=C(Nc1ncc(F)s1)C(CC1CCOCC1)n1cc2c(S(=O)(=O)C3CC3)cncc2n1 (stereo not shown) [Compound 140, 2-(4-(cyclopropylsulfonyl)-2H-pyrazol[3,4-c]pyridin-2-yl)-N-(5-fluorothiazol-2-yl)-3-(tetrahydro-2H-pyran-4-yl)propanamide] | ≥ 15800 | ≤ 90
Nc1cc(S(=O)(=O)C2CC2)c2cnn(C(CC3CCOCC3)C(=O)Nc3ncc(F)s3)c2c1 (stereo not shown) [Compound 142, 2-(6-amino-4-(cyclopropylsulfonyl)-1H-indazol-1-yl)-N-(5-fluorothiazol-2-yl)-3-(tetrahydro-2H-pyran-4-yl)propanamide] | ≤ 316 | 101 to 105
O=C(Nc1ncc(F)s1)C(CC1CCOCC1)n1ncc2c(S(=O)(=O)C3CC3)c(O)ccc21 (stereo not shown) [Compound 144, 2-(4-(cyclopropylsulfonyl)-5-hydroxy-1H-indazol-1-yl)-N-(5-fluorothiazol-2-yl)-3-(tetrahydro-2H-pyran-4-yl)propanamide] | ≤ 316 | 106 to 110
CS(=O)(=O)n1ccc(NC(=O)C(CC2CCOCC2)n2ncc3c(S(=O)(=O)C4CC4)cccc32)n1 (stereo not shown) [Compound 146, 2-(4-(cyclopropylsulfonyl)-1H-indazol-1-yl)-N-(1-(methylsulfonyl)-1H-pyrazol-3-yl)-3-(tetrahydro-2H-pyran-4-yl)propanamide] | 3980 to 12600 | ≤ 90
O=C(Nc1cccc(F)n1)C(CC1CCOCC1)n1ncc2c(S(=O)(=O)C3CC3)cccc21 (stereo not shown) [Compound 147, 2-(4-(cyclopropylsulfonyl)-1H-indazol-1-yl)-N-(6-fluoropyridin-2-yl)-3-(tetrahydro-2H-pyran-4-yl)propanamide] | 1580 to 3160 | ≥ 111
O=C(Nc1ncc(F)s1)C(CC1CCOCC1)n1cc2c(S(=O)(=O)C3CC3)c(F)ccc2n1 (stereo not shown) [Compound 148, 2-(4-(cyclopropylsulfonyl)-5-fluoro-2H-indazol-2-yl)-N-(5-fluorothiazol-2-yl)-3-(tetrahydro-2H-pyran-4-yl)propanamide] | 3980 to 12600 | ≤ 90
O=C(Nc1ncc(F)s1)C(CC1CCOCC1)n1ncc2c(S(=O)(=O)C3CC3)c(F)ccc21 (stereo not shown) [Compound 149, 2-(4-(cyclopropylsulfonyl)-5-fluoro-1H-indazol-1-yl)-N-(5-fluorothiazol-2-yl)-3-(tetrahydro-2H-pyran-4-yl)propanamide] | ≤ 316 | ≥ 111
Cn1ccc(NC(=O)C(CC2CCOCC2)n2ncc3c(S(=O)(=O)C4CC4)cncc32)n1 (stereo not shown) [Compound 151, 2-(4-(cyclopropylsulfonyl)-1H-pyrazolo[3,4-c]pyridin-1-yl)-N-(1-methyl-1H-pyrazol-3-yl)-3-(tetrahydro-2H-pyran-4-yl)propanamide] | 1580 to 3160 | 90 to 100
Cn1ccc(NC(=O)C(CC2CCOCC2)n2ncc3c(S(=O)(=O)C4CC4)c(F)ccc32)n1 (stereo not shown) [Compound 152, 2-(4-(cyclopropylsulfonyl)-5-fluoro-1H-indazol-1-yl)-N-(1-methyl-1H-pyrazol-3-yl)-3-(tetrahydro-2H-pyran-4-yl)propanamide] | ≤ 316 | 106 to 110
Cn1ccc(NC(=O)C(CC2CCOCC2)n2cc3c(S(=O)(=O)C4CC4)c(F)ccc3n2)n1 (stereo not shown) [Compound 153, 2-(4-(cyclopropylsulfonyl)-5-fluoro-2H-indazol-2-yl)-N-(1-methyl-1H-pyrazol-3-yl)-3-(tetrahydro-2H-pyran-4-yl)propanamide] | ≥ 15800 | 106 to 110
CCn1ccc(NC(=O)C(CC2CCOCC2)n2ncc3c(S(=O)(=O)C4CC4)c(F)ccc32)n1 (stereo not shown) [Compound 155, 2-(4-(cyclopropylsulfonyl)-5-fluoro-1H-indazol-1-yl)-N-(1-ethyl-1H-pyrazol-3-yl)-3-(tetrahydro-2H-pyran-4-yl)propanamide] | ≤ 316 | 106 to 110
Cc1ccc2c(cnn2C(CC2CCOCC2)C(=O)Nc2ccn(C)n2)c1S(=O)(=O)C1CC1 (stereo not shown) [Compound 158, 2-(4-(cyclopropylsulfonyl)-5-methyl-1H-indazol-1-yl)-N-(1-methyl-1H-pyrazol-3-yl)-3-(tetrahydro-2H-pyran-4-yl)propanamide] | 398 to 1260 | ≥ 111
O=C(Nc1cnccn1)[C@@H](CC1CCOCC1)n1ncc2c(S(=O)(=O)C3CC3)ccnc21 [Compound 161, (R)-2-(4-(cyclopropylsulfonyl)-1H-pyrazolo[3,4-b]pyridin-1-yl)-N-(pyrazin-2-yl)-3-(tetrahydro-2H-pyran-4-yl)propanamide] | ≥ 15800 | ≤ 90
O=C(Nc1cnccn1)[C@H](CC1CCOCC1)n1ncc2c(S(=O)(=O)C3CC3)ccnc21 [Compound 162, (S)-2-(4-(cyclopropylsulfonyl)-1H-pyrazolo[3,4-b]pyridin-1-yl)-N-(pyrazin-2-yl)-3-(tetrahydro-2H-pyran-4-yl)propanamide] | 1580 to 3160 | 106 to 110

Now from value to molecule:

EC50 [nM] | Emax [%] | Compound
398 to 1260 | 90 to 100 | O=C(Nc1ncc(F)s1)[C@H](CC1CCOCC1)n1ncc2c(S(=O)(=O)C3CC3)ccnc21 [Compound 138, (S)-2-(4-(cyclopropylsulfonyl)-1H-pyrazol[3,4-b]pyridin-1-yl)-N-(5-fluorothiazol-2-yl)-3-(tetrahydro-2H-pyran-4-yl)propanamide]
≤ 316 | 90 to 100 | O=C(Nc1ncc(F)s1)[C@H](CC1CCOCC1)n1ncc2c(S(=O)(=O)C3CC3)cc(Cl)cc21 [Compound 141, (S)-2-(6-chloro-4-(cyclopropylsulfonyl)-1H-indazol-1-yl)-N-(5-fluorothiazol-2-yl)-3-(tetrahydro-2H-pyran-4-yl)propanamide]
≤ 316 | ≤ 90 | O=C(Nc1ncc(F)s1)C(CC1CCOCC1)n1ncc2c(S(=O)(=O)C3CC3)cc(OC(F)F)cc21 (stereo not shown) [Compound 143, 2-(4-(cyclopropylsulfonyl)-6-(difluoromethoxy)-1H-indazol-1-yl)-N-(5-fluorothiazol-2-yl)-3-(tetrahydro-2H-pyran-4-yl)propanamide]
3980 to 12600 | ≤ 90 | O=C(Nc1ncc(F)s1)[C@@H](CC1CCOCC1)n1ncc2c(S(=O)(=O)C3CC3)cc(Cl)cc21 [Compound 145, (R)-2-(6-chloro-4-(cyclopropylsulfonyl)-1H-indazol-1-yl)-N-(5-fluorothiazol-2-yl)-3-(tetrahydro-2H-pyran-4-yl)propanamide]
398 to 1260 | ≥ 111 | O=C(Nc1ncc(F)s1)C(CC1CCOCC1)n1ncc2c(S(=O)(=O)C3CC3)c(Br)ccc21 (stereo not shown) [Compound 150, 2-(5-bromo-4-(cyclopropylsulfonyl)-1H-indazol-1-yl)-N-(5-fluorothiazol-2-yl)-3-(tetrahydro-2H-pyran-4-yl)propanamide]
≤ 316 | 106 to 110 | O=C(Nc1cnccn1)C(CC1CCOCC1)n1ncc2c(S(=O)(=O)C3CC3)c(F)ccc21 (stereo not shown) [Compound 154, 2-(4-(cyclopropylsulfonyl)-5-fluoro-1H-indazol-1-yl)-N-(pyrazin-2-yl)-3-(tetrahydro-2H-pyran-4-yl)propanamide]
≤ 316 | 101 to 105 | O=C(Nc1cnccn1)C(CC1CCOCC1)n1cc2c(S(=O)(=O)C3CC3)c(F)ccc2n1 (stereo not shown) [Compound 156, 2-(4-(cyclopropylsulfonyl)-5-fluoro-2H-indazol-2-yl)-N-(pyrazin-2-yl)-3-(tetrahydro-2H-pyran-4-yl)proanamide]
398 to 1260 | ≥ 111 | Cc1ccc2c(cnn2C(CC2CCOCC2)C(=O)Nc2cnccn2)c1S(=O)(=O)C1CC1 (stereo not shown) [Compound 157, 2-(4-(cyclopropylsulfonyl)-5-methyl-1H-indazol-1-yl)-N-(pyrazin-2-yl)-3-(tetrahydro-2H-pyran-4-yl)propanamide]
1580 to 3160 | 101 to 105 | Cn1ccc(NC(=O)[C@H](CC2CCOCC2)n2ncc3c(S(=O)(=O)C4CC4)cncc32)n1 [Compound 159, (S)-2-(4-(cyclopropylsulfonyl)-1H-pyrazolo[3,4-c]pyridin-1-yl)-N-(1-methyl-1H-pyrazol-3-yl)-3-(tetrahydro-2H-pyran-4-yl)propanamide]
3980 to 12600 | 90 to 100 | Cn1ccc(NC(=O)[C@@H](CC2CCOCC2)n2ncc3c(S(=O)(=O)C4CC4)cncc32)n1 [Compound 160, (R)-2-(4-(cyclopropylsulfonyl)-1H-pyrazolo[3,4-c]pyridin-1-yl)-N-(1-methyl-1H-pyrazol-3-yl)-3-(tetrahydro-2H-pyran-4-yl)propanamide]
1580 to 3160 | ≤ 90 | Nc1cc(S(=O)(=O)C2CC2)c2cnn([C@H](CC3CCOCC3)C(=O)Nc3cnccn3)c2n1 [Compound 163, (R)-2-(6-amino-4-(cyclopropylsulfonyl)-1H-pyrazolo[3,4-b]pyridin-1-yl)-N-(pyrazin-2-yl)-3-(tetrahydro-2H-pyran-4-yl)propanamide]
